Laboratory results from patent publication US20200181117A1, “SUBSTITUTED 3-HETEROARYLOXY-1H-PYRAZOLES AND SALTS THEREOF AND THEIR USE AS HERBICIDAL ACTIVE SUBSTANCES” (BAYER CROPSCIENCE AKTIENGESELLSCHAFT, priority 2017, published 2020).

Assays:
Format in all cases: in vivo
Abutilon theophrasti [1] = test: Post-emergence herbicidal action; conditions: 1280 g/ha, rated visually after about 3 weeks vs untreated controls
Procedure: (§1) A. Post-Emergence Herbicidal Action and Crop Plant Compatibility Seeds of monocotyledonous and dicotyledonous weeds and crop plants were placed in sandy loam in plastic or wood-fiber pots, covered with soil and cultivated in a greenhouse under controlled growth conditions. 2 to 3 weeks after sowing, the test plants were treated at the one-leaf stage. The compounds of the invention, formulated in the form of wettable powders (WP) or as emulsion concentrates (EC), were then sprayed onto the green parts of the plants as aqueous suspension or emulsion with addition of 0.5% additive at a water application rate of 600 l/ha (converted). After the test plants had been kept in the greenhouse under optimum growth conditions for about 3 weeks, the activity of the preparations was rated visually in comparison to untreated controls. For example, 100% activity=the plants have died, 0% activity=like control plants. Tables B1 to B15 below show the effects of selected compounds of the general formula (I) according to Table I on various harmful plants and an application rate corresponding to 1280 g/ha, which were obtained by the experimental procedure mentioned above.

Alopecurus myosuroides [2] = test: Post-emergence herbicidal action; conditions: 1280 g/ha, rated visually after about 3 weeks vs untreated controls
Procedure: as §1

Echinochloa crus-galli [3] = test: Post-emergence herbicidal action; conditions: 1280 g/ha, rated visually after about 3 weeks vs untreated controls
Procedure: as §1

Polygonum convolvulus [4] = test: Post-emergence herbicidal action; conditions: 1280 g/ha, rated visually after about 3 weeks vs untreated controls
Procedure: as §1

Viola tricolor [5] = test: Post-emergence herbicidal action; conditions: 1280 g/ha, rated visually after about 3 weeks vs untreated controls
Procedure: as §1

Abutilon theophrasti [6] = test: Pre-emergence herbicidal action; conditions: 1280 g/ha, scored visually after about 3 weeks vs untreated controls
Source text: (§2) Pre-Emergence Herbicidal Action and Crop Plant Compatibility Seeds of monocotyledonous and dicotyledonous weed plants and crop plants were placed in plastic or wood fiber pots and covered with soil. The compounds of the invention, formulated in the form of wettable powders (WP) or as emulsion concentrates (EC), were then applied onto the surface of the covering soil as aqueous suspension or emulsion with addition of 0.5% additive at a water application rate of 600 l/ha (converted). After the treatment, the pots were placed in a greenhouse and kept under good growth conditions for the test plants. After about 3 weeks, the effect of the preparations was scored visually in comparison with untreated controls as percentages. For example, 100% activity=the plants have died, 0% activity=like control plants. Tables C1 to C14 below show the effects of selected compounds of the general formula (I) according to Table I on various harmful plants and an application rate corresponding to 1280 g/ha, which were obtained by the experimental procedure mentioned above.

Alopecurus myosuroides [7] = test: Pre-emergence herbicidal action; conditions: 1280 g/ha, scored visually after about 3 weeks vs untreated controls
Source text: as §2

Amaranthus retroflexus [8] = test: Pre-emergence herbicidal action; conditions: 1280 g/ha, scored visually after about 3 weeks vs untreated controls
Source text: as §2

Echinochloa crus-galli [9] = test: Pre-emergence herbicidal action; conditions: 1280 g/ha, scored visually after about 3 weeks vs untreated controls
Source text: as §2

Hordeum murinum = test: Pre-emergence herbicidal action; conditions: 1280 g/ha, scored visually after about 3 weeks vs untreated controls
Source text: as §2

Matricaria inodora = test: Pre-emergence herbicidal action; conditions: 1280 g/ha, scored visually after about 3 weeks vs untreated controls
Source text: as §2

Polygonum convolvulus [10] = test: Pre-emergence herbicidal action; conditions: 1280 g/ha, scored visually after about 3 weeks vs untreated controls
Source text: as §2

Setaria viridis [11] = test: Pre-emergence herbicidal action; conditions: 1280 g/ha, scored visually after about 3 weeks vs untreated controls
Source text: as §2

Stellaria media [12] = test: Pre-emergence herbicidal action; conditions: 1280 g/ha, scored visually after about 3 weeks vs untreated controls
Source text: as §2

Veronica persica = test: Pre-emergence herbicidal action; conditions: 1280 g/ha, scored visually after about 3 weeks vs untreated controls
Source text: as §2

Viola tricolor [13] = test: Pre-emergence herbicidal action; conditions: 1280 g/ha, scored visually after about 3 weeks vs untreated controls
Source text: as §2

Amaranthus retroflexus [14] = test: Post-emergence herbicidal action; conditions: 1280 g/ha, rated visually after about 3 weeks vs untreated controls
Procedure: as §1

Setaria viridis [15] = test: Post-emergence herbicidal action; conditions: 1280 g/ha, rated visually after about 3 weeks vs untreated controls
Procedure: as §1

Stellaria media [16] = test: Post-emergence herbicidal action; conditions: 1280 g/ha, rated visually after about 3 weeks vs untreated controls
Procedure: as §1

Avena fatua = test: Pre-emergence herbicidal action; conditions: 1280 g/ha, scored visually after about 3 weeks vs untreated controls
Source text: as §2

Lolium rigidum = test: Pre-emergence herbicidal action; conditions: 1280 g/ha, scored visually after about 3 weeks vs untreated controls
Source text: as §2

Pharbitis purpurea = test: Post-emergence herbicidal action; conditions: 1280 g/ha, rated visually after about 3 weeks vs untreated controls
Procedure: as §1

With Fc1cnc(Oc2nn3c(c2Sc2ccc(F)cc2F)CCOCC3)nc1 [Example I-192] the “herbicidal activity on Abutilon theophrasti” value (Abutilon theophrasti [1]) was 80%, the “herbicidal activity on Alopecurus myosuroides” value (Alopecurus myosuroides [2]) was 80% and the “herbicidal activity on Echinochloa crus-galli” value (Echinochloa crus-galli [3]) was 80%. For the same molecule, the “herbicidal activity on Polygonum convolvulus” value (Polygonum convolvulus [4]) was 100%, the “herbicidal activity on Viola tricolor” value (Viola tricolor [5]) was 80% and the “herbicidal activity on Abutilon theophrasti” value (Abutilon theophrasti [6]) was 100%. For the same molecule, the “herbicidal activity on Alopecurus myosuroides” value (Alopecurus myosuroides [7]) was 100%, the “herbicidal activity on Amaranthus retroflexus” value (Amaranthus retroflexus [8]) was 80% and the “herbicidal activity on Echinochloa crus-galli” value (Echinochloa crus-galli [9]) was 100%. For the same molecule, the “herbicidal activity on Hordeum murinum” value (Hordeum murinum) was 90%, the “herbicidal activity on Matricaria inodora” value (Matricaria inodora) was 100% and the “herbicidal activity on Polygonum convolvulus” value (Polygonum convolvulus [10]) was 100%. For the same molecule, the “herbicidal activity on Setaria viridis” value (Setaria viridis [11]) was 100%, the “herbicidal activity on Stellaria media” value (Stellaria media [12]) was 90% and the “herbicidal activity on Veronica persica” value (Veronica persica) was 100%. The “herbicidal activity on Viola tricolor” value (Viola tricolor [13]) was 100%.

With Cc1c(Sc2ccc(F)cc2)c(Oc2ncc(F)cn2)nn1C [Example I-090] the “herbicidal activity on Abutilon theophrasti” value (Abutilon theophrasti [1]) was 100%, the “herbicidal activity on Alopecurus myosuroides” value (Alopecurus myosuroides [2]) was 100% and the “herbicidal activity on Amaranthus retroflexus” value (Amaranthus retroflexus [14]) was 100%. The “herbicidal activity on Echinochloa crus-galli” value (Echinochloa crus-galli [3]) was 80%, the “herbicidal activity on Polygonum convolvulus” value (Polygonum convolvulus [4]) was 100% and the “herbicidal activity on Setaria viridis” value (Setaria viridis [15]) was 100%. For the same molecule, the “herbicidal activity on Stellaria media” value (Stellaria media [16]) was 100%, the “herbicidal activity on Viola tricolor” value (Viola tricolor [5]) was 100% and the “herbicidal activity on Abutilon theophrasti” value (Abutilon theophrasti [6]) was 100%. For the same molecule, the “herbicidal activity on Alopecurus myosuroides” value (Alopecurus myosuroides [7]) was 100%, the “herbicidal activity on Amaranthus retroflexus” value (Amaranthus retroflexus [8]) was 100% and the “herbicidal activity on Avena fatua” value (Avena fatua) was 100%. For the same molecule, the “herbicidal activity on Echinochloa crus-galli” value (Echinochloa crus-galli [9]) was 100%, the “herbicidal activity on Hordeum murinum” value (Hordeum murinum) was 100% and the “herbicidal activity on Lolium rigidum” value (Lolium rigidum) was 90%. The “herbicidal activity on Matricaria inodora” value (Matricaria inodora) was 100%, the “herbicidal activity on Polygonum convolvulus” value (Polygonum convolvulus [10]) was 90% and the “herbicidal activity on Setaria viridis” value (Setaria viridis [11]) was 100%. The “herbicidal activity on Stellaria media” value (Stellaria media [12]) was 100%, the “herbicidal activity on Veronica persica” value (Veronica persica) was 100% and the “herbicidal activity on Viola tricolor” value (Viola tricolor [13]) was 100%.

CCc1c(Sc2ccccc2)c(Oc2ncccn2)nn1C [Example I-063] was tested, and the “herbicidal activity on Abutilon theophrasti” value (Abutilon theophrasti [1]) was 100%, the “herbicidal activity on Alopecurus myosuroides” value (Alopecurus myosuroides [2]) was 100% and the “herbicidal activity on Amaranthus retroflexus” value (Amaranthus retroflexus [14]) was 100%. The “herbicidal activity on Setaria viridis” value (Setaria viridis [15]) was 80%, the “herbicidal activity on Viola tricolor” value (Viola tricolor [5]) was 100% and the “herbicidal activity on Abutilon theophrasti” value (Abutilon theophrasti [6]) was 100%. For the same molecule, the “herbicidal activity on Alopecurus myosuroides” value (Alopecurus myosuroides [7]) was 100%, the “herbicidal activity on Amaranthus retroflexus” value (Amaranthus retroflexus [8]) was 100% and the “herbicidal activity on Avena fatua” value (Avena fatua) was 100%. For the same molecule, the “herbicidal activity on Echinochloa crus-galli” value (Echinochloa crus-galli [9]) was 100%, the “herbicidal activity on Hordeum murinum” value (Hordeum murinum) was 100% and the “herbicidal activity on Matricaria inodora” value (Matricaria inodora) was 100%. The “herbicidal activity on Polygonum convolvulus” value (Polygonum convolvulus [10]) was 100%, the “herbicidal activity on Setaria viridis” value (Setaria viridis [11]) was 100% and the “herbicidal activity on Stellaria media” value (Stellaria media [12]) was 90%. For the same molecule, the “herbicidal activity on Viola tricolor” value (Viola tricolor [13]) was 100%.

In the case of CCc1c(Sc2ccc(F)c(F)c2)c(Oc2ncc(F)cn2)nn1C [Example I-037], the “herbicidal activity on Abutilon theophrasti” value (Abutilon theophrasti [1]) is reported as 90%, the “herbicidal activity on Amaranthus retroflexus” value (Amaranthus retroflexus [14]) is reported as 100% and the “herbicidal activity on Pharbitis purpurea” value (Pharbitis purpurea) is reported as 100%. The “herbicidal activity on Polygonum convolvulus” value (Polygonum convolvulus [4]) was 80%, the “herbicidal activity on Setaria viridis” value (Setaria viridis [15]) was 100% and the “herbicidal activity on Stellaria media” value (Stellaria media [16]) was 100%. For the same molecule, the “herbicidal activity on Viola tricolor” value (Viola tricolor [5]) was 100%, the “herbicidal activity on Abutilon theophrasti” value (Abutilon theophrasti [6]) was 100% and the “herbicidal activity on Alopecurus myosuroides” value (Alopecurus myosuroides [7]) was 100%. For the same molecule, the “herbicidal activity on Amaranthus retroflexus” value (Amaranthus retroflexus [8]) was 100%, the “herbicidal activity on Echinochloa crus-galli” value (Echinochloa crus-galli [9]) was 100% and the “herbicidal activity on Hordeum murinum” value (Hordeum murinum) was 90%. The “herbicidal activity on Lolium rigidum” value (Lolium rigidum) was 100%, the “herbicidal activity on Matricaria inodora” value (Matricaria inodora) was 90% and the “herbicidal activity on Polygonum convolvulus” value (Polygonum convolvulus [10]) was 100%. For the same molecule, the “herbicidal activity on Setaria viridis” value (Setaria viridis [11]) was 100%, the “herbicidal activity on Stellaria media” value (Stellaria media [12]) was 100% and the “herbicidal activity on Veronica persica” value (Veronica persica) was 100%. The “herbicidal activity on Viola tricolor” value (Viola tricolor [13]) was 100%.

COc1cnc(Oc2nn(C)c(C)c2Sc2cccc(Cl)c2)nc1 [Example I-134] was tested, and the “herbicidal activity on Abutilon theophrasti” value (Abutilon theophrasti [1]) was 90%, the “herbicidal activity on Alopecurus myosuroides” value (Alopecurus myosuroides [2]) was 90% and the “herbicidal activity on Amaranthus retroflexus” value (Amaranthus retroflexus [14]) was 100%. For the same molecule, the “herbicidal activity on Echinochloa crus-galli” value (Echinochloa crus-galli [3]) was 80%, the “herbicidal activity on Pharbitis purpurea” value (Pharbitis purpurea) was 80% and the “herbicidal activity on Polygonum convolvulus” value (Polygonum convolvulus [4]) was 80%. For the same molecule, the “herbicidal activity on Viola tricolor” value (Viola tricolor [5]) was 100%, the “herbicidal activity on Abutilon theophrasti” value (Abutilon theophrasti [6]) was 100% and the “herbicidal activity on Alopecurus myosuroides” value (Alopecurus myosuroides [7]) was 100%. For the same molecule, the “herbicidal activity on Amaranthus retroflexus” value (Amaranthus retroflexus [8]) was 100%, the “herbicidal activity on Avena fatua” value (Avena fatua) was 80% and the “herbicidal activity on Echinochloa crus-galli” value (Echinochloa crus-galli [9]) was 90%. For the same molecule, the “herbicidal activity on Hordeum murinum” value (Hordeum murinum) was 90%, the “herbicidal activity on Lolium rigidum” value (Lolium rigidum) was 100% and the “herbicidal activity on Matricaria inodora” value (Matricaria inodora) was 100%. The “herbicidal activity on Polygonum convolvulus” value (Polygonum convolvulus [10]) was 100%, the “herbicidal activity on Setaria viridis” value (Setaria viridis [11]) was 100% and the “herbicidal activity on Stellaria media” value (Stellaria media [12]) was 100%. The “herbicidal activity on Veronica persica” value (Veronica persica) was 100% and the “herbicidal activity on Viola tricolor” value (Viola tricolor [13]) was 100%.

In the case of Cc1c(Sc2ccc(F)cc2F)c(Oc2ncc(F)cn2)nn1C [Example I-115], the “herbicidal activity on Abutilon theophrasti” value (Abutilon theophrasti [1]) is reported as 100%, the “herbicidal activity on Amaranthus retroflexus” value (Amaranthus retroflexus [14]) is reported as 100% and the “herbicidal activity on Polygonum convolvulus” value (Polygonum convolvulus [4]) is reported as 90%. The “herbicidal activity on Setaria viridis” value (Setaria viridis [15]) was 100%, the “herbicidal activity on Stellaria media” value (Stellaria media [16]) was 100% and the “herbicidal activity on Viola tricolor” value (Viola tricolor [5]) was 100%. The “herbicidal activity on Abutilon theophrasti” value (Abutilon theophrasti [6]) was 100%, the “herbicidal activity on Alopecurus myosuroides” value (Alopecurus myosuroides [7]) was 90% and the “herbicidal activity on Amaranthus retroflexus” value (Amaranthus retroflexus [8]) was 100%. For the same molecule, the “herbicidal activity on Echinochloa crus-galli” value (Echinochloa crus-galli [9]) was 100%, the “herbicidal activity on Lolium rigidum” value (Lolium rigidum) was 80% and the “herbicidal activity on Matricaria inodora” value (Matricaria inodora) was 90%. The “herbicidal activity on Polygonum convolvulus” value (Polygonum convolvulus [10]) was 90%, the “herbicidal activity on Setaria viridis” value (Setaria viridis [11]) was 100% and the “herbicidal activity on Stellaria media” value (Stellaria media [12]) was 90%. The “herbicidal activity on Veronica persica” value (Veronica persica) was 100% and the “herbicidal activity on Viola tricolor” value (Viola tricolor [13]) was 100%.
